Assay results from the CheMixHub ionic liquid set.
± gives the uncertainty stated by the source.

Assay: xn = mol fraction of the nth substance listed

CCCCCCCCn1cc[n+](C)c1.O=[N+]([O-])[O-] + CCCO
101 kPa
Conditions	viscosity [mPa·s]
288.15 K, x2 = 0.258	356 ± 94
288.15 K, x2 = 0.556	52 ± 1.3
293.15 K, x2 = 0.47	75.4 ± 4.4
293.15 K, x2 = 0.556	42.1 ± 1.6
293.15 K, x2 = 0.671	19.89 ± 0.88
298.15 K, x2 = 0.866	5.08 ± 0.53
303.15 K, x2 = 0.258	147 ± 21
303.15 K, x2 = 0.364	78.7 ± 5.1
308.15 K, x2 = 0.556	24.01 ± 0.99
313.15 K, x2 = 0.47	32.9 ± 1.3
313.15 K, x2 = 0.671	10.83 ± 0.64
318.15 K, x2 = 0.258	65.9 ± 2.8
318.15 K, x2 = 0.671	9.5 ± 0.61
328.15 K, x2 = 0.556	11.56 ± 0.65

CCOP(=O)([O-])OCC.CC[n+]1ccn(C)c1 + CCCO + O
100 kPa
Conditions	viscosity [mPa·s]
293.15 K, x2 = 0.347, x3 = 0.3491	90 ± 12
303.15 K, x2 = 0.294, x3 = 0.304	78 ± 10
313.15 K, x2 = 0.15, x3 = 0.1487	93 ± 12
313.15 K, x2 = 0.199, x3 = 0.1954	76 ± 10
323.15 K, x2 = 0.048, x3 = 0.0487	80 ± 11

CCCCCCCCn1cc[n+](C)c1.F[B-](F)(F)F + CCCOC(C)=O
298.15 K, 101 kPa
Conditions	viscosity [mPa·s]
x2 = 0.3984	44.84 ± 0.5
x2 = 0.4496	33.85 ± 0.37
x2 = 0.5551	18.72 ± 0.2

CCCCCCCCCCCCCC[P+](CCCCCC)(CCCCCC)CCCCCC.O=S(=O)([N-]S(=O)(=O)C(F)(F)F)C(F)(F)F + CCC[N+]1(C)CCCC1.O=S(=O)([N-]S(=O)(=O)C(F)(F)F)C(F)(F)F
Conditions	electrical conductivity [S/m]
293.15 K, 101 kPa, x1 = 1	0.00719 ± 0.00073

O=C1CCCO1 + CCC[N+]1(C)CCCC1.O=S(=O)([N-]S(=O)(=O)C(F)(F)F)C(F)(F)F
101 kPa, x2 = 0
Conditions	viscosity [mPa·s]
288.15 K	2.146 ± 0.087
318.15 K	1.398 ± 0.057
348.15 K	0.99 ± 0.04

CCCCCCCCn1cc[n+](C)c1.F[B-](F)(F)F + CCO
Conditions	viscosity [mPa·s]
283.15 K, 101 kPa, x2 = 0.081	720 ± 130

CCCCCCCCn1cc[n+](C)c1.O=[N+]([O-])[O-] + CCO
101 kPa
Conditions	viscosity [mPa·s]
283.15 K, x2 = 0.554	48.2 ± 2
288.15 K, x2 = 0.357	162 ± 26
288.15 K, x2 = 0.868	4.46 ± 0.53
293.15 K, x2 = 0.455	59.7 ± 1.9
293.15 K, x2 = 0.767	8.59 ± 0.59
298.15 K, x2 = 0.767	7.54 ± 0.57
303.15 K, x2 = 0.554	21.79 ± 0.93
303.15 K, x2 = 0.767	6.47 ± 0.55
313.15 K, x2 = 0.767	4.99 ± 0.53
318.15 K, x2 = 0.128	112 ± 12
318.15 K, x2 = 0.357	39.8 ± 1.5
318.15 K, x2 = 0.455	21.77 ± 0.91
328.15 K, x2 = 0.128	53.6 ± 1.6
328.15 K, x2 = 0.357	23.9 ± 1
328.15 K, x2 = 0.554	9.29 ± 0.6

CCCC[n+]1ccn(C)c1.COP(=O)([O-])OC + CCO
viscosity [mPa·s], 101 kPa
Conditions	293.15 K	298.15 K	308.15 K	313.15 K	318.15 K	323.15 K	328.15 K	333.15 K
x2 = 0.201	–	–	155.7 ± 6.5	–	–	–	–	–
x2 = 0.399	150.9 ± 6.7	114.4 ± 3.6	–	55.65 ± 0.58	45.2 ± 0.56	37.08 ± 0.44	30.89 ± 0.36	25.94 ± 0.26
x2 = 0.8	–	–	5.933 ± 0.068	5.272 ± 0.061	–	4.227 ± 0.049	3.811 ± 0.045	–

CCCC[n+]1ccn(C)c1.[Cl-] + CCO
101 kPa
Conditions	electrical conductivity [S/m]	viscosity [mPa·s]
293.15 K, x2 = 0.9501	–	1.78 ± 0.39
298.15 K, x2 = 0.7003	1.07 ± 0.02	10.1 ± 1.6
298.15 K, x2 = 0.8002	1.45 ± 0.03	4.59 ± 0.81
303.15 K, x2 = 0.4991	–	49.8 ± 7.6
303.15 K, x2 = 0.6011	–	20.7 ± 3.2
303.15 K, x2 = 0.9501	–	1.47 ± 0.34

CCOP(=O)([O-])OCC.CC[N+]1(C)CCOCC1 + CCO
viscosity [mPa·s], 100 kPa
Conditions	293.15 K	298.15 K	303.15 K	308.15 K	313.15 K	318.15 K	323.15 K	328.15 K	333.15 K	338.15 K
x1 = 0.0996	4.62 ± 0.28	4.1 ± 0.25	3.75 ± 0.23	3.43 ± 0.21	3.13 ± 0.19	2.91 ± 0.18	2.76 ± 0.17	2.58 ± 0.16	2.4 ± 0.15	2.24 ± 0.14
x1 = 0.2018	12.84 ± 0.78	11.11 ± 0.67	9.79 ± 0.59	8.75 ± 0.53	7.93 ± 0.48	7.21 ± 0.44	6.69 ± 0.4	6.18 ± 0.37	5.76 ± 0.35	5.54 ± 0.34
x1 = 0.3003	36.7 ± 2.2	29.6 ± 1.8	24.7 ± 1.5	20.8 ± 1.3	18.1 ± 1.1	15.82 ± 0.96	14.33 ± 0.87	13.01 ± 0.79	11.79 ± 0.72	10.78 ± 0.65
x1 = 0.4018	97.7 ± 6.1	75.1 ± 4.6	59 ± 3.6	47.6 ± 2.9	38.2 ± 2.3	31.8 ± 1.9	27.3 ± 1.7	23.5 ± 1.4	21.1 ± 1.3	18.7 ± 1.1
x1 = 0.4998	257 ± 18	183 ± 12	136.7 ± 8.8	102.9 ± 6.5	78.9 ± 4.9	61.3 ± 3.8	49.2 ± 3	40.1 ± 2.5	33.3 ± 2.1	29 ± 1.8
x1 = 0.6009	625 ± 49	419 ± 31	291 ± 20	209 ± 14	155 ± 10	116.8 ± 7.5	90 ± 5.7	68.9 ± 4.3	54.9 ± 3.4	44.7 ± 2.8
x1 = 0.7005	1447 ± 130	938 ± 78	631 ± 49	424 ± 31	298 ± 21	213 ± 15	158 ± 11	120.4 ± 7.8	91.7 ± 5.8	72 ± 4.5
x1 = 0.7996	3386 ± 340	2221 ± 210	1448 ± 130	895 ± 74	582 ± 45	409 ± 30	282 ± 20	205 ± 14	155 ± 10	114.1 ± 7.4
x1 = 0.901	6136 ± 670	3670 ± 370	2214 ± 210	1372 ± 120	909 ± 76	604 ± 48	418 ± 32	297 ± 21	215 ± 15	160 ± 11
x1 = 1	12100 ± 1500	6680 ± 740	3786 ± 390	2325 ± 220	1466 ± 130	942 ± 80	634 ± 51	443 ± 34	312 ± 23	226 ± 16

CCOP(=O)([O-])OCC.CC[n+]1ccn(C)c1 + CCO
100 kPa
Conditions	viscosity [mPa·s]
293.15 K, x1 = 0.7003	178 ± 12
293.15 K, x1 = 0.8985	379 ± 27
293.15 K, x1 = 1	566 ± 43
298.15 K, x1 = 0.4007	29.8 ± 1.8
298.15 K, x1 = 0.7003	133.2 ± 8.5
303.15 K, x1 = 0.4007	24.8 ± 1.5
303.15 K, x1 = 0.8	139.2 ± 8.9
303.15 K, x1 = 0.8985	197 ± 13
308.15 K, x1 = 0.7003	79.6 ± 4.9
313.15 K, x1 = 1	155 ± 10
318.15 K, x1 = 0.8985	86.8 ± 5.4
323.15 K, x1 = 0.7003	41.1 ± 2.5
328.15 K, x1 = 0.1002	2.16 ± 0.13
328.15 K, x1 = 0.1992	4.29 ± 0.26
328.15 K, x1 = 0.5993	24.4 ± 1.5
333.15 K, x1 = 0.4007	10.87 ± 0.66
338.15 K, x1 = 0.7003	23.7 ± 1.4

CCCC[N+]1(C)CCCC1.O=S(=O)([N-]S(=O)(=O)C(F)(F)F)C(F)(F)F + CCOC(=O)OCC
100 kPa
Conditions	electrical conductivity [S/m]	viscosity [mPa·s]
293.15 K, x1 = 0.1001	0.343 ± 0.011	1.84 ± 0.06
293.15 K, x1 = 0.2	0.526 ± 0.016	3.84 ± 0.12
293.15 K, x1 = 0.4998	0.42 ± 0.013	18.14 ± 0.56
293.15 K, x1 = 0.8934	0.23 ± 0.007	72.5 ± 2.2
303.15 K, x1 = 0.2	0.648 ± 0.02	3.18 ± 0.1
303.15 K, x1 = 0.25	0.731 ± 0.022	–
308.15 K, x1 = 0.4998	0.705 ± 0.021	11.73 ± 0.36
308.15 K, x1 = 0.8934	0.454 ± 0.014	38.8 ± 1.2
313.15 K, x1 = 0.1001	0.465 ± 0.015	1.22 ± 0.04
313.15 K, x1 = 0.25	0.9 ± 0.027	–
323.15 K, x1 = 0.1001	0.539 ± 0.017	1 ± 0.03
323.15 K, x1 = 0.8006	0.793 ± 0.024	18.67 ± 0.57

CCCCCCCCn1cc[n+](C)c1.F[B-](F)(F)F + CCOC(C)=O
298.15 K, 101 kPa
Conditions	viscosity [mPa·s]
x2 = 0.204	115.5 ± 4.4
x2 = 0.3986	41.35 ± 0.54
x2 = 0.4461	31.64 ± 0.41
x2 = 0.5984	12.72 ± 0.17
x2 = 0.624	10.93 ± 0.14
x2 = 0.8017	3.1 ± 0.05
x2 = 0.953	0.74 ± 0.01

CCCC[n+]1ccn(C)c1.O=S(=O)([O-])C(F)(F)F + CCOC(C)=O
100 kPa
Conditions	viscosity [mPa·s]
298.15 K, x1 = 0.6095	28.3 ± 5.7
298.15 K, x1 = 0.8932	55 ± 11
303.15 K, x1 = 0.3978	13.4 ± 2.7
303.15 K, x1 = 1	67 ± 13
313.15 K, x1 = 0.0991	0.84 ± 0.17
313.15 K, x1 = 1	43.7 ± 8.8
318.15 K, x1 = 0.1916	2.57 ± 0.52
318.15 K, x1 = 1	36.3 ± 7.3
323.15 K, x1 = 0.7987	18.2 ± 3.7
323.15 K, x1 = 0.8932	22.4 ± 4.5

CC[N+](C)(CC)CCOC.O=S(=O)([N-]S(=O)(=O)C(F)(F)F)C(F)(F)F + CC[N+](C)(CC)CCOC.F[B-](F)(F)F
Conditions	electrical conductivity [S/m]
298.15 K, 100 kPa, x1 = 1	0.311 ± 0.019
